Assay results taken from patent US10323022B2, “Pyrrolidinyl urea, pyrrolidinyl thiourea and pyrrolidinyl guanidine compounds as TrkA kinase inhibitors” (Array BioPharma Inc., priority 2011, dated 2019).

Biological target: TrkA (Homo sapiens (Human), UniProt P04629)
Assay: TrkA Omnia Assay
Format: biochemical
Conditions: averaged IC50; 20 nM enzyme, 500 μM ATP, 10 μM peptide substrate
Method in brief: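 Recombinant TrkA (20 nM) preincubated 10 min at ambient temperature with compound, then Omnia Tyr Peptide #4 (10 μM) and ATP (500 μM) added in 25 mM MOPS pH 7.5, 5 mM MgCl2, 0.005% Triton X-100. Fluorescence (ex 360/em 485 nm) followed continuously for 70 min; IC50 from initial rates by 4- or 5-parameter logistic fit.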

Chain of TrkA (P04629 33-796): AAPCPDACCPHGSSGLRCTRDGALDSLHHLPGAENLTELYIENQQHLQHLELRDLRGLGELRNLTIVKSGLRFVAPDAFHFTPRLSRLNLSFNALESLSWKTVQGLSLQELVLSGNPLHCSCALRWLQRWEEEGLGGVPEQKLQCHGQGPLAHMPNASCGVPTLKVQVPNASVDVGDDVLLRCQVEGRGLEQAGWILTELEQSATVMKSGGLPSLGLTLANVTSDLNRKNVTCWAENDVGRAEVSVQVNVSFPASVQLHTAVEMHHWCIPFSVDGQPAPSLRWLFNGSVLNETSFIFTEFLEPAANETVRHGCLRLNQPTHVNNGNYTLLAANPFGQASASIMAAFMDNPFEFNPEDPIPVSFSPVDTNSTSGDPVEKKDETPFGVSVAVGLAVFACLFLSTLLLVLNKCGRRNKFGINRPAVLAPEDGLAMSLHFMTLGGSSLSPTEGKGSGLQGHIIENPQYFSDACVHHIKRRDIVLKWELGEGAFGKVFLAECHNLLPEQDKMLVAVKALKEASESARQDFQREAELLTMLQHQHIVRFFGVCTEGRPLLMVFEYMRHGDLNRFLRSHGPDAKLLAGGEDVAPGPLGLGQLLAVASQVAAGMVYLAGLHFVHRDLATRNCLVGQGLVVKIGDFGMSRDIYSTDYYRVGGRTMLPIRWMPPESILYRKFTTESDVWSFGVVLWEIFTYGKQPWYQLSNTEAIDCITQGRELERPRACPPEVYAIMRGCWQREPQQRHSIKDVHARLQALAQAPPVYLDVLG

Compound `CCOc1nn(-c2ccccc2)c(NC(=O)N[C@@H]2CN(c3ccccc3F)C[C@H]2c2ccccc2)c1C` [Example 234, 1-(3-ethoxy-4-methyl-1-phenyl-1H-pyrazol-5-yl)-3-((3S,4R)-1-(2-fluorophenyl)-4-phenylpyrrolidin-3-yl)urea] has an IC50 of 0.1 to 1 µM.
`CCOc1nn(-c2ccccc2)c(NC(=O)N[C@@H]2CN(c3ccc(F)cc3)C[C@H]2c2ccccc2)c1C` [Example 235, 1-(3-ethoxy-4-methyl-1-phenyl-1H-pyrazol-5-yl)-3-((3S,4R)-1-(4-fluorophenyl)-4-phenylpyrrolidin-3-yl)urea] was tested, and the IC50 was 0.1 to 1 µM.
Compound `CCOc1nn(-c2ccccc2)c(NC(=O)N[C@@H]2CN(c3ccccc3C)C[C@H]2c2ccccc2)c1C` [Example 236, 1-(3-ethoxy-4-methyl-1-phenyl-1H-pyrazol-5-yl)-3-((3S,4R)-1-(2-methylphenyl)-4-phenylpyrrolidin-3-yl)urea] has an IC50 of 0.1 to 1 µM.
Compound `CCOc1nn(-c2ccccc2)c(NC(=O)N[C@@H]2CN(c3ccccc3OC)C[C@H]2c2ccccc2)c1C` [Example 237, 1-(3-ethoxy-4-methyl-1-phenyl-1H-pyrazol-5-yl)-3-((3S,4R)-1-(2-methoxyphenyl)-4-phenylpyrrolidin-3-yl)urea] has an IC50 of 0.1 to 1 µM.
In the case of `CCOc1nn(-c2ccccc2)c(NC(=O)N[C@@H]2CN(c3ccccc3Cl)C[C@H]2c2ccccc2)c1C` [Example 238, 1-(3-ethoxy-4-methyl-1-phenyl-1H-pyrazol-5-yl)-3-((3S,4R)-1-(2-chlorophenyl)-4-phenylpyrrolidin-3-yl)urea], the IC50 is reported as 0.1 to 1 µM.
Compound `CCOc1nn(-c2ccccc2)c(NC(=O)N[C@@H]2CN(c3ccccc3OC(F)(F)F)C[C@H]2c2ccccc2)c1C` [Example 239, 1-(3-ethoxy-4-methyl-1-phenyl-1H-pyrazol-5-yl)-3-((3S,4R)-4-phenyl-1-(2-(trifluoromethoxy)phenyl)pyrrolidin-3-yl)urea] has an IC50 of 0.1 to 1 µM.
Compound `CCOc1nn(-c2ccccc2)c(NC(=O)N[C@@H]2CN(c3c(F)cccc3F)C[C@H]2c2ccccc2)c1C` [Example 240, 1-((3S,4R)-1-(2,6-difluorophenyl)-4-phenylpyrrolidin-3-yl)-3-(3-ethoxy-4-methyl-1-phenyl-1H-pyrazol-5-yl)urea] has an IC50 of 0.1 to 1 µM.
With `CCOc1nn(-c2ccccc2)c(NC(=O)N[C@@H]2CN(c3ccnc(OC)c3)C[C@H]2c2ccccc2)c1C` [Example 241, 1-(3-ethoxy-4-methyl-1-phenyl-1H-pyrazol-5-yl)-3-((3S,4R)-1-(2-methoxypyridin-4-yl)-4-phenylpyrrolidin-3-yl)urea] the IC50 was 0.1 to 1 µM.
In the case of `CCOc1nn(-c2ccccc2)c(NC(=O)N[C@@H]2CN(c3cccnc3OC)C[C@H]2c2ccccc2)c1C` [Example 242, 1-(3-ethoxy-4-methyl-1-phenyl-1H-pyrazol-5-yl)-3-((3S,4R)-1-(2-methoxypyridin-3-yl)-4-phenylpyrrolidin-3-yl)urea], the IC50 is reported as < 0.1 µM.
With `CCOc1ncccc1N1C[C@@H](NC(=O)Nc2c(C)c(OCC)nn2-c2ccccc2)[C@H](c2ccccc2)C1` [Example 243, 1-(3-ethoxy-4-methyl-1-phenyl-1H-pyrazol-5-yl)-3-((3S,4R)-1-(2-ethoxypyridin-3-yl)-4-phenylpyrrolidin-3-yl)urea] the IC50 was < 0.1 µM.
Compound `COc1ncccc1N1C[C@@H](NC(=O)Nc2c(C)c(-c3ccccc3)nn2-c2ccccc2)[C@H](c2ccccc2)C1` [Example 245, 1-((3S,4R)-1-(2-methoxypyridin-3-yl)-4-phenylpyrrolidin-3-yl)-3-(4-methyl-1,3-diphenyl-1H-pyrazol-5-yl)urea] has an IC50 of 0.1 to 1 µM.
For `COc1ncccc1N1C[C@@H](NC(=O)Nc2c(Br)c(-c3cnn(C)c3)nn2-c2ccccc2)[C@H](c2ccccc2)C1` [Example 246, 1-(4-bromo-1′-methyl-1-phenyl-1H,1′H-[3,4′-bipyrazol]-5-yl)-3-((3S,4R)-1-(2-methoxypyridin-3-yl)-4-phenylpyrrolidin-3-yl)urea], the IC50 was < 0.1 µM.
